Assay results from US20230130102A1, “Na/K-ATPase LIGANDS AND USE THEREOF FOR TREATMENT OF CANCER” (Marshall University Research Corporation, priority 2019, published 2023).

Columns and labels:
[1] = test system: α1 NKA/Src receptor; test: multi-step assay of MB5 derivatives (NKA and E-cadherin expression, 3D-spheroid invasion); assay type: cell-based; conditions: for potency relative to MB5: ability to restore NKA and E-cadherin expression and 3D-spheroid invasion data
Text: A multi-step assay was further designed to identify which compounds among the MB5 derivatives could be developed as an anti-cancer agent in terms of their potential to stop tumor invasion and growth. This multi-step assay included: (A) an ATPase activity assay- to confirm the binding of derivatives to NKA; (B) an assay to measure inhibition of ouabain-induced ERK activation and NKA endocytosis as well as basal Src/ERK/endocytotic activity in PY-17 cells (NKA/Src inverse agonist); (C) an assay to measure the ability to increase the expression of α1 NKA and E-cadherin level and decrease mesenchymal markers (ZEB1, SNAIL, vimentin) and Myc in cancer cells; (D) a 3D culture to test the anti-invasive and anti-growth potential of spheroids; and (E) an in vivo tumor xenograft model (by transplantation into NOD/SCOD mice). Upon analysis of the results of these experiments, it was believed that some of the MB5 derivative compounds show better or similar properties than MB5 as shown for certain of the compounds in FIGS. 6A-6G. Examples of experiments testing the derivatives are further provided for MIIRMB5 D1 (FIGS. 7A-7B), MIIRMB5 D3 (FIGS. 8A-8C), MIIRMB5 D4 (FIGS. 9A-9C), MIIRMB5 D5 (FIGS. 10A-10C), MIIRMB5 D6 (FIGS. 11A-11C), MIIRMB5 D7 (FIGS. 12A-12B), MIIRMB5 D13 (FIGS. 13A-13C), MIIRMB5 D14 (FIGS. 14A-14C), and MIIRMB5 D15 (FIGS. 15A-15C).

[2] = test system: DU145 derived subclones; test: Western blot / immunostaining of EMT markers, Src/FAK activation and proliferation markers in DU145 derived subclones; assay type: cell-based, human; conditions: subclone 2 cells, PP2 treatment (24 hours)
[3] = target: T1, α1 NKA/Src receptor complex (Sus scrofa, UniProt P05024); test: ouabain-induced Src/ERK activation in LLC-PK1 cells (immunostaining, Western blot); assay type: cell-based, pig; conditions: baseline
T1 construct: endogenous in cells; host or cells: LLC-PK1
Protocol: Western blot, Immunoprecipitation and Immunostaining. Cells were grown to 100% confluency and Western blot were performed as described before. Images were quantified with ImageJ software from NIH. Immunoprecipitation studies were performed as described before. α1 NKA immunostaining was performed by growing cells on sterilized coverslips in 6 well tissue culture plates and permeabilization/fixation with ice-cold methanol followed by blocking with 5% horse serum and 0.1% Triton X-100 in 1× Phosphate buffered saline (PBS) for 30 minutes. Coverslips were then stained with an anti-α1 NKA antibody (Millipore, Cat #05-369) at 1:100 dilution in 1% BSA (Bovine Serum Albumin) containing 1×PBS solution for overnight. Next day after three washes, coverslips were stained with Alexa Fluor 488 conjugated anti-mouse secondary antibody (Thermo-Fisher) for 1 hour, washed extensively and then imaged using a fluorescent microscope with GFP filter or confocal microscope (LEICA-DMIRE2). E-cadherin and occludin immunostaining was performed in a similar manner. Phospho-Src, phospho ERK1/2 immunostaining were performed as described before and images were taken with a LEICA DMIRE2 confocal microscope.
Characterization of MB5 activity on the NKA receptor function known as the NKA/Src binary receptor mechanism was conducted in a pig kidney epithelial cells (LLC-PK1)-based platform using immunostaining and Western blot analyses. […] The change of NKA conformation that occurs upon binding of agonists such as ouabain, results in the release and activation of the Src kinase domain from the “Naktide” site of NKA CD3, while the other interaction (constitutive) persists between NKA CD2 and the SH2 domain of Src. […] In LLC-PK1-derived cells with low NKA receptor constitutive activity due to substantial reduction (over 80%) of α1 NKA expression by siRNA (PY17 cells), increased basal Src and ERK activity is observed due to the abnormally high amount of Src kinase that remains in an active conformation. […]

[4] = target: T2, YFP-tagged α1 NKA (Rattus norvegicus, UniProt P06685); test: ouabain-induced α1 NKA endocytosis in YFP-α1-TCN cells; assay type: cell-based; conditions: TCN-YFP α1 cells
T2 construct: expressed in transfected cells; host or cells: YFP-α1-TCN cells
Protocol: It is appreciated that ouabain induces Src/ERK activation (increased protein phosphorylation) of LLC-PK1 cells by binding to α1 NKA and thereby initiates a signaling cascade which results in the endocytosis of the α1 NKA to terminate the signaling.
α1 NKA endocytosis assay. Endocytosis assay was performed as described before.
Characterization of MB5 activity on the NKA receptor function known as the NKA/Src binary receptor mechanism was conducted in a pig kidney epithelial cells (LLC-PK1)-based platform using immunostaining and Western blot analyses. […] The change of NKA conformation that occurs upon binding of agonists such as ouabain, results in the release and activation of the Src kinase domain from the “Naktide” site of NKA CD3, while the other interaction (constitutive) persists between NKA CD2 and the SH2 domain of Src.

## O=c1[nH]c2c(ccc3c(=O)c4cccc(O)c4oc32)o1 [MIIRMB5 D3]
[1]
  potency relative to MB5: about 10 fold

## Nc1c(O)ccc2c(=O)c3cccc(O)c3oc12 [MIIRMB5 D4]
[1]
  potency relative to MB5: about 10 fold

## O=S1(=O)c2cccc(O)c2Oc2c1ccc(O)c2O [MIIRMB5 D13]
[1]; NKA and E-cadherin expression, 3D-spheroid invasion
  effective concentration / dosage: about 100 nM

## CC(C)(C)n1nc(-c2ccc(Cl)cc2)c2c(N)ncnc21 [PP2, reference compound]
[2]
  E-cadherin expression: increase in E-cadherin expression

## C[C@@H]1O[C@@H](O[C@H]2C[C@@H](O)[C@]3(CO)[C@H]4[C@H](O)C[C@]5(C)[C@@H](C6=CC(=O)OC6)CC[C@]5(O)[C@@H]4CC[C@]3(O)C2)[C@H](O)[C@H](O)[C@H]1O [ouabain, reference compound]
[3]
  ERK activation / NKA receptor function by the compound alone: activated ERK signal
[4]
  α1 NKA internalization (endocytosis) by the compound alone: induced α1 NKA internalization (endocytosis)
